A short description of data set [1]: Solubility (physico-chemical properties).
Data set [2] concerns Pseudomonas aeruginosa NCTC 10490. The data set can be described thus: MIC by agar dilution method, Mueller-Hinton agar. It counts as cell-based. Here is the method: (§1) The minimal inhibitory concentrations (MIC) of mureidomycins E and F against various Gram-positive and Gram-negative bacteria were determined by the agar dilution method, using a Mueller-Hinton agar medium (produced by Difco).
(In general: In agar dilution the substance is mixed into plates at graded concentrations.)

In data set [3] the test system is Proteus mirabilis SANK 70461. Description: MIC by agar dilution method, Mueller-Hinton agar. It counts as cell-based. Here is the method:
as §1

For data set [4], the system named is Pseudomonas aeruginosa SANK 75775. Description: MIC by agar dilution method, Mueller-Hinton agar. The class given is cell-based. Here is the method:
as §1

For data set [5], the system named is Pseudomonas aeruginosa SANK 70970. The data set can be described thus: MIC by agar dilution method, Mueller-Hinton agar. It counts as cell-based. Here is the method: as §1
In data set [6] the test system is Pseudomonas aeruginosa ATCC 13388. Description: MIC by agar dilution method, Mueller-Hinton agar. The class given is cell-based. Here is the method:
as §1

For data set [7], the system named is Pseudomonas aeruginosa SANK 70579. Description: MIC by agar dilution method, Mueller-Hinton agar. It counts as cell-based. Here is the method: as §1
For data set [8], the system named is Pseudomonas aeruginosa SANK 75175. The data set can be described thus: MIC by agar dilution method, Mueller-Hinton agar. The class given is cell-based. Here is the method: as §1
For data set [9], the system named is Serratia marcescens SANK 73060. The data set can be described thus: MIC by agar dilution method, Mueller-Hinton agar. The class given is cell-based. Here is the method:
as §1

For data set [10], the system named is Pseudomonas aeruginosa NRRL B1000. The data set can be described thus: MIC by agar dilution method, Mueller-Hinton agar. The class given is cell-based. Here is the method: as §1
The test system of data set [11] is Escherichia coli NIHJ JC-2. The data set can be described thus: MIC by agar dilution method, Mueller-Hinton agar. The class given is cell-based. Here is the method:
as §1

Data set [12] relates to Staphylococcus aureus FDA 209P JC-1. Description: MIC by agar dilution method, Mueller-Hinton agar. It counts as cell-based. Here is the method: as §1
Data set [13] is described as follows: Toxicity in mice after intravenous administration. The class given is in vivo. As to conditions: intravenously 400 mg/kg.
For data set [14], the system named is Pseudomonas aeruginosa SANK 70579. The data set can be described thus: Growth inhibition test of derivatives. The class given is cell-based.

Converted amounts (≈) assume the structure as drawn.

The source of these data is US5041423A, “Antibiotics of the mureidomycin group, their preparation, and their therapeutic use” (Sankyo Company, Limited, priority 1987, dated 1991).

As usually defined, the MIC is the least concentration at which growth counts as inhibited. High values mean weaker potency, low ones greater potency.

For the compound `CSCC[C@H](NC(=O)NC(Cc1cccc(O)c1)C(=O)O)C(=O)N[C@@H](C(=O)NC=C1CC(O)C(n2ccc(=O)[nH]c2=O)O1)C(C)N(C)C(=O)[C@@H](N)Cc1cccc(O)c1` (some centres unmarked) [Mureidomycin A, reference compound], in [1], the Solubility in acetone entry is given as “slightly soluble”, the Solubility in benzene result is “insoluble”, the Solubility in chloroform result was “insoluble” and the “Solubility in ethyl acetate” value is listed as “insoluble”. For the same compound, in data set [1], the Solubility in methanol entry is “Soluble” and the Solubility in water entry is “Soluble”.
`CSCC[C@@H](NC(=O)N[C@H](Cc1cccc(O)c1)C(=O)O)C(=O)N[C@H](C(=O)N/C=C1/C[C@H](O)[C@@H](n2ccc(=O)[nH]c2=O)O1)[C@H](C)N(C)C(=O)[C@H]1Cc2cccc(O)c2CN1` [Mureidomycin E]: the Solubility in acetone result in data set [1] is listed as “slightly soluble”. Further, the Solubility in benzene entry in [1] is on record as “insoluble”. Also, in data set [1], the Solubility in chloroform entry is recorded as “insoluble”. Also, the “Solubility in ethyl acetate” value in [1] is “insoluble”. In addition, the Solubility in methanol result in [1] is given as “Soluble”. Moreover, the Solubility in water entry in data set [1] is on record as “Soluble”. Also, the MIC in data set [2] is less than 0.4 µg/mL; in data set [3], more than 200 µg/mL; in [4] it was 6.25 µg/mL (≈ 7.33 µM); in data set [5], 25 µg/mL (≈ 29.3 µM); in data set [6], 25 µg/mL (≈ 29.3 µM); in data set [7], less than 0.4 µg/mL. Further, the MIC in [8] is 25 µg/mL (≈ 29.3 µM); in data set [9], more than 200 µg/mL; in [10], 25 µg/mL (≈ 29.3 µM); in data set [11] it was more than 200 µg/mL; in data set [12] it was more than 200 µg/mL. The toxicity result in data set [13] is reported as “No toxicity was observed”.
Consider `CSCC[C@@H](NC(=O)N[C@@H](Cc1cccc(O)c1)C(=O)O)C(=O)N[C@@H](C(=O)N/C=C1/C[C@@H](O)[C@H](n2ccc(=O)[nH]c2=O)O1)[C@@H](C)N(C)C(=O)[C@H]1Cc2cc(O)ccc2CN1` [Mureidomycin F], for which the Solubility in acetone result in [1] was “slightly soluble”. The Solubility in benzene entry in data set [1] is listed as “insoluble”. The Solubility in chloroform result in data set [1] was “insoluble”. For the same compound, the “Solubility in ethyl acetate” value in [1] is on record as “insoluble”. Also, the Solubility in methanol entry in data set [1] is on record as “Soluble”. Also, the Solubility in water entry in data set [1] is listed as “Soluble”. In addition, the minimum inhibitory concentration (MIC) is 0.8 µg/mL (≈ 0.938 µM) in data set [2]; more than 200 µg/mL in data set [3]; 25 µg/mL (≈ 29.3 µM) in data set [4]; 100 µg/mL (≈ 117 µM) in data set [5]; 3.13 µg/mL (≈ 3.67 µM) in data set [6]; 1.56 µg/mL (≈ 1.83 µM) in data set [7]. The minimum inhibitory concentration (MIC) is 50 µg/mL (≈ 58.6 µM) in [8]; more than 200 µg/mL in data set [9]; 3.13 µg/mL (≈ 3.67 µM) in [10]; more than 200 µg/mL in [11]; more than 200 µg/mL in data set [12]. In data set [13], the toxicity result is reported as “No toxicity was observed”.
methylmureidomycin E: the Solubility in water result in [1] is reported as “soluble”. The inhibition of growth entry in data set [14] is recorded as “inhibit the growth”.
For the compound methylmureidomycin F, the Solubility in water result in data set [1] is listed as “soluble”. For the same compound, the inhibition of growth result in data set [14] is given as “inhibit the growth”.
Turning to phenylmureidomycin E, the Solubility in water entry in [1] is on record as “soluble”. In [14], the inhibition of growth entry is “inhibit the growth”.
Regarding phenylmureidomycin F, the Solubility in water entry in data set [1] is recorded as “soluble”. Further, the inhibition of growth entry in [14] is “inhibit the growth”.
